Paper PMC10195864, “Stereochemical engineering yields a multifunctional peptide macrocycle inhibitor of Akt2 by fine-tuning macrocycle-cell membrane interactions” (Communications Chemistry, 2023)
“And” between values parts separate entries of the source, which are not always exact repeats. Identical values can stand only once. “Also recorded” adds a separate entry of the source. Like-named read-outs stand apart in the source and are kept apart here. Positions of bridges follow the written chain, without caps; N, C: chain ends. Non-standard residues stand in square brackets, D forms with d. Residues, ends and D or L forms follow the SMILES beside them. R8 = C=CCCCCCC[C@@](C)(N)C(=O)O; S5 = C=CCCC[C@](C)(N)C(=O)O

Key:
[1] = molecular target: T1, pAkt2 (active His6-tagged Akt2) (Homo sapiens, UniProt P31751); assay: ELISA for peptides against full-length pAkt2 protein (serial dilution); type: binding; conditions: biotinylated ligand immobilized, His6-pAkt2 titrated
T1 construct: purchased Abcam
T1 sequence (P31751 whole entry): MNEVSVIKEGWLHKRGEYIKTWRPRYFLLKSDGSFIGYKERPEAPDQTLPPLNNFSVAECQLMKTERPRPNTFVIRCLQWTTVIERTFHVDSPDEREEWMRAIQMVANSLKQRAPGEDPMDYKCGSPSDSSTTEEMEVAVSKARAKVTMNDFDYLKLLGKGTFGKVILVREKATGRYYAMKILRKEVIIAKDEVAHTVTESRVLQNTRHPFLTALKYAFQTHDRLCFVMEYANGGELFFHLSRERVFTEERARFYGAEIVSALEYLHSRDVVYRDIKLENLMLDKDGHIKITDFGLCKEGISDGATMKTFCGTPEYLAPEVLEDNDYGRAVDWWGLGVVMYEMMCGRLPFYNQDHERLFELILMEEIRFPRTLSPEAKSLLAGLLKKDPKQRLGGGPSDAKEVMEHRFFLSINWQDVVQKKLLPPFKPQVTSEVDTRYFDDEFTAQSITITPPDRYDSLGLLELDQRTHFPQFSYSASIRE
Method: A total of 2 μM solution of each biotinylated peptide was prepared in binding buffer. A total of 100 μL of each solution was added to each well of a High-Capacity Streptavidin 96 well plate (Thermo Scientific), and the plate was shaken for 2 h at room temperature. The wells were blocked with 5% milk in 25 mM tris chloride, pH = 7.4, 150 mM NaCl and 0.05% Tween 20 (TBST). The wells were washed with binding buffer five times. Serial dilutions of active His6-tagged Akt2 were made in the binding buffer. A total of 100 μL of each solution was added per well, and the plate was shaken overnight at 4 °C. The wells were washed three times with the binding buffer, then treated for an hour with a 1:1000 dilution of anti 6X His mouse monoclonal [HIS.H8] antibody. A 1:10,000 dilution of goat anti-mouse antibody-Horse Radish Peroxide conjugate in binding buffer was added to the wells for an hour. The plate was washed three times with TBST and once with TBS (25 mM tris chloride, pH = 7.5, 150 mM NaCl), treated with TMB substrate (KPL), and quenched with sulfuric acid, and the absorbance at 450 nm wavelength measured. From the absorbance values at 450 nm wavelength (A450) for each protein concentration, the corresponding blank A450 (no ligand immobilized, same concentration of protein added) was subtracted. They were then fitted by non-linear regression in GraphPad Prism 6.

recombinant Akt3 = system: recombinant Akt3; design: method as in PMID 25329478; conditions: recombinant Akt; cited from earlier work
pAkt2 = molecular target: T2, pAkt2 (Homo sapiens, UniProt P31751); assay: Protein selectivity ELISA, 25 nM protein; type: binding; conditions: for binding to pAkt2: single-point ELISA, 25 nM protein, A450
T2 construct: purchased Abcam
T2 sequence (P31751 whole entry): as above
Method: A total of 1.25 μM biotinylated ligand was prepared by diluting the 1 mM stock in binding buffer (0.1% BSA, 25 mM trisCl, pH = 7.5, 150 mM NaCl, 0.05% Tween20). The prepared ligand solution or 0.125% DMSO (buffer control) in binding buffer was immobilized on a High-Capacity Streptavidin 96 well plate (Thermo Scientific). After washing the excess ligand, the plate was blocked overnight with 1% BSA in TBST. […] After three washes with the binding buffer, the plate was treated for an hour with a 1:1000 dilution of anti-His6 mouse monoclonal antibody in the binding buffer. A 1:10,000 dilution of goat anti-mouse antibody conjugated to Horse Radish Peroxide in binding buffer was added to the wells. The plates were washed four times, five minutes each, with TBST and once with TBS. The color was developed by adding TMB substrate to each well. The reaction was quenched with 0.5 M H2SO4. The absorbance values at 450 nm (A450) were measured on a 96-well plate reader. The Net A450 was obtained by subtracting the absorbance value for the blank control (no immobilized ligand) from each triplicate value obtained for the ligand–epitope interaction.

[2] = molecular target: T3, target phosphopeptide epitope, Akt2 amino acids 450–481 (pS474) (Homo sapiens, UniProt P31751); assay: Epitope selectivity ELISA, 2.5 µM His6-tagged epitope; type: binding; conditions: 1.25 µM ligand immobilized, 2.5 µM epitope
T3 construct: made in house; host or cells: chemical solid-phase peptide synthesis
T3 sequence (P31751 450-481 limits assumed): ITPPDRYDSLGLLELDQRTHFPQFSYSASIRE
Method: A total of 1.25 μM biotinylated ligand was prepared by diluting the 1 mM stock in binding buffer (0.1% BSA, 25 mM trisCl, pH = 7.5, 150 mM NaCl, 0.05% Tween20). The prepared ligand solution or 0.125% DMSO (buffer control) in binding buffer was immobilized on a High-Capacity Streptavidin 96 well plate (Thermo Scientific). After washing the excess ligand, the plate was blocked overnight with 1% BSA in TBST. 2.5 μM solutions of the His6-tagged target phosphopeptide epitope, Akt2 amino acids 450–481, or His6-tagged scrambled peptide was added to each of the wells and incubated overnight. After three washes with the binding buffer, the plate was treated for an hour with a 1:1000 dilution of anti-His6 mouse monoclonal antibody in the binding buffer. A 1:10,000 dilution of goat anti-mouse antibody conjugated to Horse Radish Peroxide in binding buffer was added to the wells. The plates were washed four times, five minutes each, with TBST and once with TBS. […] The absorbance values at 450 nm (A450) were measured on a 96-well plate reader. The Net A450 was obtained by subtracting the absorbance value for the blank control (no immobilized ligand) from each triplicate value obtained for the ligand–epitope interaction. […]
-FPQF(pS)YSAS-IRE and the scrambled epitope His6–Peg2-ITPPDRYDSLGLLELQRTH-YFFASQPSS-IRE overnight. […] The absorbance at 450 nm is measured to quantitate the binding. […]

[3] = molecular target: T1, pAkt2 (active His6-tagged Akt2); design: method as in PMID 26377818; conditions: read-out: EC50 against pAkt2; cited from earlier work
[4] = molecular target: macrocycle C2, Cy(YYTYTG-rcm); assay: ELISA; biotinylated peptide (2 μM) immobilised on a streptavidin plate; serial dilutions of active His6-tagged Akt2 in binding buffer (0.1% BSA, 25 mM trisCl pH 7.5, 150 mM NaCl, 0.05% Tween20), overnight at 4 °C; detected with anti-His6 antibody; A450 fitted by non-linear regression

Molecule	binding to pAkt2 (pAkt2)	also measured
C[C@@H](O)[C@@H]1NC(=O)[C@H](Cc2ccc(O)cc2)NC(=O)[C@H]([C@@H](C)O)NC(=O)[C@H](Cc2ccc(O)cc2)NC(=O)[C@H](Cc2ccc(O)cc2)NC(=O)[C@](C)(N)CCCCCCC=CCCC[C@@](C)(C(N)=O)NC(=O)CNC1=O [C2, Cy(YYTYTG-rcm)] (H-[R8]YYTYTG[S5]-NH2; staple 1-8; N-terminus and C-terminus assumed)	–	EC50 [1]: 44 nM and 42 nM
NC1(c2ccc(-c3nc4ccn5c(=O)[nH]nc5c4cc3-c3ccccc3)cc2)CCC1 [MK-2206]	–	inhibition of Akt3 relative to Akt1 and Akt2 (recombinant Akt3): five-fold less
Cy(4fF-4fF-TYTG-rcm)	higher binding than C2	–
Cy(4fF-YTYTG-rcm)	higher signal than C2	–
Cy(-Y4fF-TYTG-rcm)	higher signal than C2	–
Cy(YYT-4fF-TG-rcm)	decreases binding	–
Cy(YYTYT-Tz4) [C1]	binds to the target pAkt2 protein	binding to target phosphorylated chemical epitope [2]: better binding affinity for target chemical; also recorded: binds significantly better than the linear non-cyclized; also recorded: is a better binder than the latter; selectivity for pAkt2 over other pAkt isoforms (pAkt2; 25 nM His6-pAkt1, pAkt2, pAkt3): selective for pAkt2 over the other two isoforms; EC50 [3]: 120 nM
Cy(YYTYTG-Tz4)	does not	–
Cy(YYTY’T’Grcm)	show no binding	–
Cy(Y’YTY’TGrcm)	show no binding	–
full-length active His6-tagged Akt2, phosphorylated at Ser474 (pAkt2) (from UniProt P31751 1-481) (enzyme)	–	EC50 [4]: 44 nM
